Experiments:
[1] = test system: IL-6 in senescent IMR90 cells; assay: IL-6 immunofluorescence and ELISA in irradiated senescent IMR90 cells treated with Nutlin-3a; type: cell-based, human
Method: Primary human fibroblast (IMR90) cells were induced to senesce by applying 10 Gy of irradiation. Seven days after irradiation (Day 0), cells were treated with 10 μM Nutlin-3a or vehicle (DMSO) for nine days (Day 9). The drug or vehicle was refreshed every three days. Drug/vehicle was removed at Day 9 and the cells were cultured for an additional three days (Day 12). Cells were then fixed with 4% paraformaldehyde and stained by immunofluorescence with a specific anti-IL-6 antibody (R&D, AF-206-NA). Cells were counterstained with DAPI for nuclear visualization. The percent IL-6 positive cells is illustrated in FIG. 12A. IL-6 positive cells were determined in an unbiased manner using CellProfiler software. Three different cultures were assessed. Non-senescent cells had no detectable cells IL-6 production while senescent cells were about 8% positive at day 9 after vehicle (DMSO) treatment (16 days after irradiation). […] At day 12, 3 days after Nutlin-3a was removed and 19 days after irradiation, IL-6 positive cells in the vehicle control were about 9% and Nutlin3a treated cells were less than 1% positive for IL-6.
In another experiment, IMR90 cells were induced to senesce by irradiation (10 Gy). Seven days after irradiation, cells were treated with 10 μM Nutlin-3a or vehicle (DMSO) for nine days (Day 9). The drug or vehicle was refreshed every three days. Drug/vehicle was removed at Day 9 and the cells were cultured for an additional six days. Conditioned media from the treated cells was collected, and IL-6 measurement by ELISA was performed (Perkin Elmer, AL223F). IL-6 levels in culture media were determined by ELISA using a kit according to manufacturer's instructions (AL223F, Perkin Elmer). Cells were fixed with 4% paraformaldehyde and stained by immunofluorescence with a specific anti-IL-6 antibody (R&D, AF-206-NA). The IL-6 level determined by ELISA was normalized to the number of cells in each well. The data are presented in FIG. 22C as a relative level of IL-6 in the treated cells compared to the level in non-senescent cells (NS). […]

LDLR−/− mice fed a HFD = assay: Atherosclerosis model, LDLR-/- mice on high fat diet treated with Nutlin-3A; type: in vivo, mouse
Excerpt: Schematics of two atherosclerosis mouse models are presented in FIGS. 43A-B. The study illustrated in FIG. 43A assessed the extent to which clearance of senescent cells from plaques in LDLR^−/− mice with Nutlin-3A reduces plaque load. Two groups of LDLR^−/− mice (10 weeks) are fed a high fat diet (HFD) (Harlan Teklad TD.88137) having 42% calories from fat, beginning at Week 0 and throughout the study. Two groups of LDLR^−/− mice (10 weeks) are fed normal chow (−HFD). From weeks 0-2, one group of HFD mice and −HFD mice are treated with Nutlin-3A (25 mg/kg, intraperitoneally). One treatment cycle is 14 days treatment, 14 days off. Vehicle is administered to one group of HFD mice and one group of −HFD mice. At week 4 (timepoint 1), one group of mice are sacrificed and to assess presence of senescent cells in the plaques. For the some of the remaining mice, Nutlin-3A and vehicle administration is repeated from weeks 4-6. At week 8 (timepoint 2), the mice are sacrificed and to assess presence of senescent cells in the plaques. The remaining mice are treated with Nutlin-3A or vehicle from weeks 8-10. At week 12 (timepoint 3), the mice are sacrificed and to assess the level of plaque and the number of senescent cells in the plaques.
Plasma lipid levels were measured in LDLR^−/− mice fed a HFD and treated with Nutlin-3A or vehicle at timepoint 1 as compared with mice fed a −HFD (n=3 per group). Plasma was collected mid-afternoon and analyzed for circulating lipids and lipoproteins.
At the end of timepoint 1, LDLR^−/− mice fed a HFD and treated with Nutlin-3A or vehicle were sacrificed (n=3, all groups), and the aortic arches were dissected for RT-PCR analysis of SASP factors and senescent cell markers. Values were normalized to GAPDH and expressed as fold-change versus age-matched, vehicle-treated LDLR^−/− mice on a normal diet.
At the end of timepoint 2, LDLR^−/− mice fed a HFD and treated with Nutlin-3A or vehicle (n=3 for all groups) were sacrificed, and aortic arches were dissected for RT-PCR analysis of SASP factors and senescent cell markers. Values were normalized to GAPDH and expressed as fold-change versus age-matched, vehicle-treated LDLR^−/− mice on a normal diet.
At the end of timepoint 3, LDLR^−/− mice fed a HFD and treated with Nutlin-3A or vehicle (n=3 for all groups) were sacrificed, and aortas were dissected and stained with Sudan IV to detect the presence of lipid. Body composition of the mice was analyzed by MRI, and circulating blood cells were counted by Hemavet. […] As shown in FIGS. 48A-B, the platelet and lymphocyte counts were equivalent between the Nutlin-3A and vehicle treated mice.

C57BL/6J mice = assay: Rotarod motor coordination in 23 month old C57BL/6J mice; type: in vivo, mouse
Method: A group of 34 C57BL/6J mice were tested for motor coordination in a rotarod at 23 months of age. Mice were tested for 4 consecutive days. Each session consisted of 4 runs in which the speed of the rotating rod increased from 4 to 40 rpm over 5 minutes. Mice were allowed to run until they fell. The latency to fall was recorded for each run, and averaged to obtain a single value for each session. Half of the mice were then treated with 50 mg/kg nutlin-3a for 14 consecutive days, via IP injection, while the rest of them were sham injected. 3 weeks after the last day of treatment, motor coordination was assessed following the described procedure.
Values higher than 1 correspond to an increase in motor coordination after treatment. The average of 4 runs for each animal and the average (±SEM) for each group are shown.
The average of 4 runs is shown for each day (±SEM).

[2] = test system: pATM, γH2AX, IkBa, MDM2, p53, p21 in senescent IMR90 cells; assay: Immunoblot of DNA damage response proteins in irradiated senescent IMR90 cells treated with Nutlin-3a; type: cell-based, human
Method: Primary human fibroblast (IMR90) cells were induced to senesce by applying 10 Gy of irradiation. Seven days after irradiation (Day 0), cells were treated with 10 μM Nutlin-3a or vehicle (DMSO) for nine days (Day 9). The drug or vehicle was refreshed every three days. Drug/vehicle was removed at Day 9 and the cells were cultured for an additional six days in media without drug or DMSO, changing media every three days. Cells were collected at Day 0 (non-senescent cells), Day 9, Day 12, and Day 15, and protein extracted and processed for immunoblotting (Western blotting). Two samples were processed at each time point; the results are provided for one sample in FIG. 14.

In the case of `COc1ccc(C2=N[C@@H](c3ccc(Cl)cc3)[C@@H](c3ccc(Cl)cc3)N2C(=O)N2CCNC(=O)C2)c(OC(C)C)c1` [Nutlin-3a], the “IL-6 level (ELISA), fold lower than DMSO treated senescent cells” value ([1]; 10 μM for 9 days, then up to 6 days without drug) is reported as 5-9 fold, the “percent IL-6 positive cells” value ([1]; 10 μM, day 9 (16 days after irradiation)) is reported as “below 5%” and the “percent IL-6 positive cells” value ([1]; day 12, 3 days after drug removal) is reported as “less than 1%”. The “expression of SASP factors and senescent cell markers in aortic arch” value (LDLR−/− mice fed a HFD; after 1 treatment cycle (25 mg/kg ip, 14 days on, 14 days off)) was “reduced expression of several SASP factors and senescent cell markers”, the “expression of SASP factors and senescent cell markers in aortic arch” value (LDLR−/− mice fed a HFD; multiple treatment cycles (timepoint 2)) was “reduced expression of most markers” and the “platelet and lymphocyte counts versus vehicle” value (LDLR−/− mice fed a HFD; timepoint 3) was “equivalent”. For the same molecule, the “mass and body fat composition” value (LDLR−/− mice fed a HFD; timepoint 3, HFD) was “decreased mass and body fat composition”, the “reduction of plaques in the descending aorta” value (LDLR−/− mice fed a HFD; timepoint 3, three treatment cycles, Sudan IV staining) was ~45% and the “rotarod performance (latency to fall)” value (C57BL/6J mice; 50 mg/kg IP 14 days, after three days of training, p<0.05) was “increased rotarod performance”. The “ratio of latency to fall, fourth session after treatment / fourth baseline session” value (C57BL/6J mice; p<0.01) was “higher average ratio”, the “rotarod performance over the training period” value (C57BL/6J mice; p<0.01, 2-way ANOVA) was “better performance” and the “phosphorylation of the kinase ATM (pATM S1981)” value ([2]; 10 μM, also after drug removal) was “lower”. For the same molecule, the “level of IkBa” value ([2]; after drug is removed) was “approaches the level of IkBa in non-senescent cells”, the “phosphorylation of H2AX (γH2AX)” value ([2]; after treatment and after drug removal) was “declining levels of phosphorylation” and the “levels of MDM2, p53 and p21 protein” value ([2]; drug present, decreased when drug removed) was “elevated”.
